Experimental data as given in US11827628B2, “Compositions and methods for inhibition of the JAK pathway” (Rigel Pharmaceuticals, Inc., priority 2005, dated 2023).
Structures can show the parent of a compound that is named as a salt. Where two headings read alike, the source gives them in different places.

Experiments:
[1] = test system: IL-4 stimulated expression of CD23 in human Ramos B cells (JAK-1 and JAK-3); experiment: Assay for Ramos B-Cell Line Stimulated with IL-4 (CD23 upregulation, FACS); format: cell-based; details: read-out: IC50, Example 41
Outline: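 Read-out: anti-CD23-PE flow cytometry on Ramos B cells, giving IC50. Cells (5×10^4 per point, RPMI + 5% serum) get compound or DMSO for 1 h at 37 °C, then IL-4 50 units/mL final for 20-24 h.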

[2] = test system: up-regulation of ICAM-1 (CD54) by IFNγ in U937 human monocytic cells; experiment: U937 IFNγ ICAM1 FACS Assay; format: cell-based; details: U937 cells stimulated with IFNγ, ICAM-1 expression by FACS, read-out: IC50, Example 44
Outline: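 U937 cells in 10% FCS RPMI were preincubated 30 min at 37 °C with an 8-point, 3-fold compound dilution series in duplicate, then stimulated with IFNγ for 18–24 h. Surface ICAM-1 was stained with APC anti-ICAM-1 and read by flow cytometry as geometric mean on live-gated cells. EC50 was derived.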

[3] = Ramos B-cell line stimulated with IL-4, CD23 expression by FACS
[4] = Ramos B cells stimulated with IL-4, CD23 expression by FACS

IC50 [1, 3]	IC50 [2]	IC50 [1, 4]	SMILES	also measured
0.137 µM	0.978 µM	–	NS(=O)(=O)c1cccc(Nc2ncc(F)c(Nc3ccc(SCc4cccnc4)cc3)n2)c1 [Compound I-192, N2-(3-Aminosulfonylphenyl)-5-fluoro-N4-[4-(3-pyridinyl)-methylenethiophenyl]-2,4-pyrimidinediamine]	–
–	1.26 µM	0.152 µM	COCCOc1ccc(Nc2nc(Nc3ccc(C)c(S(N)(=O)=O)c3)ncc2F)cc1 [VI-112, N2-(3-Aminosulfonyl-4-methylphenyl)-5-fluoro-N4-[4-(2-methoxyethyleneoxy)phenyl]-2,4-pyrimdinediamine]	–
0.0624 µM	0.456 µM	–	CNS(=O)(=O)c1cc(Nc2ncc(C)c(Nc3ccc(OCc4ccccn4)cc3)n2)ccc1C [Compound I-180, 5-Methyl-N2-[3-(N-methylaminosulfony)-4-methylphenyl]-N4-[4-(2-pyridinyl)methyleneoxyphenyl]-2,4-pyrimidinediamine]	–
–	0.754 µM	–	NS(=O)(=O)c1cccc(Nc2ncc(F)c(Nc3ccc(OCc4ccccn4)cc3)n2)c1 [Compound I-196, N2-(3-Aminosulfonylphenyl)-5-fluoro-N4-4-[(2-pyridinyl)methyleneoxyphenyl]-2,4-pyrimidinediamine Hydrochloride Salt]	IC50 ([1]; Ramos B-cell line stimulated with IL-4, CD23 expression by FACS, Hydrochloride Salt): 0.124 µM
–	0.496 µM	0.104 µM	CNS(=O)(=O)c1cc(Nc2ncc(F)c(Nc3ccc4c(c3)CCN4S(C)(=O)=O)n2)ccc1C [VII-62, 5-Fluoro-N2-[3-(N-methylaminosulfony)-4-methylphenyl]-N4-[4-(1-methylsulfonyl)indolin-5-yl]-2,4-pyrimidinediamine]	–
0.0243 µM	0.117 µM	–	Cc1cnc(Nc2cccc(S(N)(=O)=O)c2)nc1Nc1ccc(OCc2ccccn2)cc1 [Compound I-179, N2-(3-Aminosulfonylphenyl)-5-methyl-N4-[4-(2-pyridinyl)methyleneoxyphenyl]-2,4-pyrimidinediamine]	–
0.115 µM	15.5 µM	–	CNS(=O)(=O)c1cc(Nc2ncc(F)c(Nc3ccc(-c4ccccn4)c(OCF)c3)n2)ccc1C [Compound I-173, 5-Fluoro-N2-[3-N-(methyl)aminosulfonyl-4-methylphenyl]-N4-[4-(2-pyridinyl)-3-fluoromethyleneoxyphenyl]-2,4-pyrimidinediamine]	–
0.292 µM	15.7 µM	–	Cc1cc(Nc2nc(Nc3ccc(S(N)(=O)=O)cc3)ncc2F)cc(C)c1OC(C)C(N)=O (racemic) [Compound I-122, Racemic N4-[4-(1-Aminocarbonyl)ethoxy-3,5-dimethyl]phenyl-N2-(4-aminosulfonyl)phenyl-5-fluoro-2,4-pyrimidinediamine]	–
–	3.43 µM	0.314 µM	COCCOc1ccc(Nc2nc(Nc3ccc(Cl)c(S(N)(=O)=O)c3)ncc2F)cc1 [VI-111, N2-(3-Aminosulfonyl-4-chlorophenyl)-5-fluoro-N4-[4-(2-methoxyethyleneoxy)phenyl]-2,4-pyrimdinediamine]	–
–	1.85 µM	0.0296 µM	N#CCn1ccc2cc(Nc3nc(Nc4cccc(S(N)(=O)=O)c4)ncc3F)ccc21 [IX-5, N2-(3-Aminosulfonylphenyl)-N4-(1-cyanomethyleneindol-5-yl)-5-fluoro-2,4-pyrimidinediamine]	–
–	0.57 µM	0.065 µM	CS(=O)(=O)N1CCc2cc(Nc3nc(Nc4cccc(S(N)(=O)=O)c4)ncc3F)ccc21 [VII-60, N2-(3-Aminosulfonylphenyl)-5-fluoro-N4-[4-(1-methylsulfonyl)indolin-5-yl]-2,4-pyrimidinediamine]	–
0.245 µM	1.64 µM	–	CCN(CC)CCNS(=O)(=O)c1ccc(Nc2ncc(F)c(Nc3ccc(OCc4ccccn4)cc3)n2)cc1 [Compound I-165, N2-[4-(2-N,N-Diethylaminoethyl)aminosulfonylphenyl)-5-fluoro-N4-[4-(2-pyridinyl)methyleneoxyphenyl]-2,4-pyrimidinediamine]	–
0.233 µM	2.51 µM	–	Cc1ccc(Nc2ncc(F)c(Nc3ccc(OC(C)(C)C(N)=O)cc3)n2)cc1S(N)(=O)=O [Compound I-127, N4-[4-(1-Aminocarbonyl-1-methyl)ethoxy]phenyl-N2-(3-aminosulfonyl-4-methyl)phenyl-5-fluoro-2,4-pyrimidinediamine]	–
–	0.877 µM	0.103 µM	CCS(=O)(=O)N1CCc2cc(Nc3nc(Nc4cccc(S(N)(=O)=O)c4)ncc3F)ccc2C1 [VII-14, N2-(3-aminosulfonyl)phenyl-N4-[(N-ethylsulfonyl)-1,2,3,4-tetrahydroisoquinolin-6-yl]-5-fluoro-2,4-pyrimidinediamine]	–
–	6.25 µM	0.413 µM	CN(C)C(=O)C1Cc2cc(Nc3nc(Nc4ccc(Cl)c(S(N)(=O)=O)c4)ncc3F)ccc2O1 (racemic) [VII-27, Racemic N2-(3-Aminosulfonyl-4-chlorophenyl)-N4-[2-(N,N-dimethylaminocarbonyl)-2,3-dihydrobenzofuran-5-yl]-5-fluoro-2,4-pyrimidinediamine]	–
0.132 µM	3.3 µM	–	Cc1ccc(Nc2ncc(F)c(Nc3cc(C)c(OCC(N)=O)c(C)c3)n2)cc1S(N)(=O)=O [Compound I-96, N4-(4-Aminocarbonylmethoxy-3,5-dimethyl)phenyl-N2-(3-aminosulfonyl-4-methyl)phenyl-5-fluoro-2,4-pyrimidinediamine]	–
–	0.477 µM	0.0439 µM	Cc1ccc(Nc2ncc(F)c(Nc3ccc4c(c3)NC(=O)CS4)n2)cc1S(N)(=O)=O [VII-45, N2-(3-Aminosulphonyl-4-methyl-phenyl)-5-fluoro-N4-(3-oxo-4H-benzo[1,4]thiazin-6-yl)-2,4-pyrimidinediamine]	–
–	38.5 µM	0.0476 µM	NC1CCOc2ccc(Nc3nc(Nc4ccc(S(N)(=O)=O)cc4)ncc3F)cc21 (centres unmarked) [VII-29, N2-(4-Aminosulfonylphenyl)-N4-(chroman-4-amine-6-yl)-5-fluoro-2,4-pyrimidinediamine]	–
0.24 µM	2.69 µM	–	Cc1cc(COc2ccc(Nc3nc(Nc4ccc(C)c(S(N)(=O)=O)c4)ncc3F)cc2)n(Cc2ccccc2)n1 [Compound I-199, N2-(3-Aminosulfonyl-4-methylphenyl)-N4-[4-(1-benzyl-3-methyl-(1H)-pyrazol-5-yl)methyleneoxyphenyl]-5-fluoro-2,4-pyrimidinediamine]	–
0.177 µM	1.41 µM	–	NS(=O)(=O)c1ccc(Nc2ncc(F)c(Nc3ccc(OCc4ccccn4)cc3)n2)cc1 [Compound I-163, N2-(4-Aminosulfonylphenyl)-5-fluoro-N4-[4-(2-pyridinyl)methyleneoxyphenyl]-2,4-pyrimidinediamine]	–
–	–	–	CNS(=O)(=O)c1cc(Nc2ncc(F)c(Nc3ccc(Cn4ccnc4)cc3)n2)ccc1C [III-85, 5-Fluoro-N2-[3-(N-methylaminosulfony)-4-methylphenyl]-N4-[4-(1-imidazolylmethyl)phenyl]-2,4-pyrimidinediamine hydrochloride]	IC50 ([1]; Ramos B-cell line stimulated with IL-4, CD23 expression by FACS, hydrochloride): 0.0727 µM; IC50 ([2]; hydrochloride): 3.62 µM
0.145 µM	1.5 µM	–	CNS(=O)(=O)c1cc(Nc2ncc(F)c(Nc3ccc(OCc4cccnc4)cc3)n2)ccc1C [Compound I-190, 5-Fluoro-N2-[3-(N-methylaminosulfony)-4-methylphenyl]-5-fluoro-N4-[4-(3-pyridinyl)methyleneoxyphenyl]-2,4-pyrimidinediamine]	–
